From paper PMC11126915, “iATPSnFR2: A high-dynamic-range fluorescent sensor for monitoring intracellular ATP” (Proceedings of the National Academy of Sciences of the …, 2024)

Experiments:
[1] = tested on: axonal mitochondria of primary hippocampal neurons; assay: mitochondrial matrix ATP imaging in axonal mitochondria of primary neurons; assay type: cell-based, Sprague-Dawley rats; conditions: 10 µM, perfusion; KA in 5 mM glucose; oligomycin in 1.25 mM lactate + 1.25 mM pyruvate
From the text: iATPSnFR2.HaloTag variants were subcloned by restriction digest into an AAV vector with a CAG promoter via BglII/PstI digest from the bacterial expression vector. The pAAV.CAG vector includes an extra serine after the initial methionine and lacks a polyhistidine tag. To target the sensor to the mitochondrial matrix, four repeats of COX8(mito) leader sequence ([…]) separated by spacer (IHSLPPEGPW) were introduced at the N terminus of iAPTSnFR2(A95A/A119L). HaloTag was incorporated at the N-terminal of iATPSnFR2.A95A.A119L separated by a linker (LQSTGSGNAVGQDTQER). […]
(§1) Coverslips were loaded onto a custom chamber ([32]), mounted on a Zeiss inverted microscope and perfused at ~100 µL min^–1 with Tyrode’s solution containing: 119 mM NaCl, 2.5 mM KCl, 5 mM glucose, 50 mM HEPES, 2 mM CaCl2, 2 mM MgCl2, 50 µM DL-2-amino-5-phosphonovaleric acid (AP5), and 10 µM 6-cyano-7-nitroquinoxaline-2,3-dione (CNQX), adjusted to pH 7.4. […] Fluorescence was stimulated with OBIS 488 nm LX or OBIS 637 nm LS lasers (Coherent) passing through a laser speckle reducer (LSR 3005 at 12° diffusion angle, Optotune). […]
Time series of imaging pairs (HaloTag and iATPSnFR2) were split into two independent image series using a custom-written Fiji routine to facilitate analysis. […] Synaptic boutons signals were analyzed using homemade script routines in Igor-pro v6.3.7.2 (WaveMetrics, Lake Oswego, OR, USA). […]

[2] = tested on: nerve terminals of dissociated hippocampal neurons; assay: ATP depletion in nerve terminals during AP firing; assay type: cell-based, Sprague-Dawley rats; conditions: 5 mM glucose + 10 µM KA, 6 s at 50 Hz
Description: (§2) Primary neuronal cultures were prepared as previously described ([31]). Hippocampal CA1 to CA3 regions were dissected, dissociated, and plated onto poly-L-ornithine-coated coverslips. Plating media consisted of the minimal essential medium, 0.5% glucose, insulin (0.024 g/L), transferrin ([…]), GlutaMAX 1%, N-21 (2%), and fetal bovine serum (10%). After 1 to 3 days in vitro (DIV), cells were fed and maintained in media with the following modifications: cytosine β-D-arabinofuranoside (4 µM) and FBS 5%. Cultures were incubated at 37 °C in a 95% air/5% CO2 incubator. Calcium phosphate–mediated gene transfer was performed on DIV 6 to 8, and neurons were used for experiments on DIV 14 to 21.
as §1

[3] = tested on: synaptic boutons of hippocampal neurons; assay: spontaneous ATP depletion in synaptic boutons (synaptophysin-targeted iATPSnFR2); assay type: cell-based, Sprague-Dawley rats; conditions: 5 mM glucose + 10 µM KA + 0.3 µM TTX, iATPSnFR2.A95A.A119L.HaloTag-JFX650
Description: as §2, §1

iATPSnFR2.S29W.A95K [4] = tested on: T1, iATPSnFR2.S29W.A95K; assay: Separate head-to-head equilibrium fluorescence titration of 0.2 µM purified sensor HaloTag-JFX650 conjugate with ATP and other nucleoside triphosphates (ex 485 nm, em 535 nm) in Mammalian Cell Imaging Buffer, pH 7.2.; conditions: n = 3; read-out: Binding curve fits, in µM, for ATP, CTP, GTP (binding specificity)
T1 construct: epsilon subunit residues 1-109, linker 1 VLVG, cpSFGFP, linker 2 ICV, residues 110-129, C-terminal HaloTag conjugated to JFX650
Description: (§3) Purified protein was mixed with 1.1 molar equivalents of JFX650 HaloTag ligand and incubated at room temperature for 1 h and then at 4 °C overnight. Excess HaloTag ligand was removed by gel filtration on a PD-10 column (GE Life Sciences) and reconcentrated by ultrafiltration.
(§4) All in vitro assays were performed in Mammalian Cell Imaging Buffer unless otherwise noted. iATPSnFR2 equilibrium measurements (affinity, specificity, pH) were performed with 0.2 µM protein in a Tecan Spark fluorimeter with 20 nm bandpass windows and excitation at 485 nm and emission at 535 nm.
(§5) [NTP], µM [NTP], µM [NTP], µM
(§6) Supplementary Figure 1d. In vitro characterization: binding specificity. iATPSnFR2 affinity for ATP
(§7) and other nucleoside triphosphates. Three variants of iATPSnFR2.HaloTag-JFX650 titrated with ATP
(§8) and other NTPs, head-to-head. S29W.A95K (left); A95K (center); A95A.A119L (right). ATP (black),
(§9) CTP (cyan), GTP (grey), TTP (purple). Binding curve fits, in µM, for ATP, CTP, GTP are S29W.A95K:
(§10) Error bars are s.d. of three technical replicates.

iATPSnFR2.A95K [5] = tested on: T2, iATPSnFR2.A95K; assay: as above; conditions: n = 3; read-out: Binding curve fits, in µM, for ATP, CTP, GTP (binding specificity)
T2 construct: epsilon subunit residues 1-109, linker 1 VLVG, cpSFGFP, linker 2 ICV, residues 110-129, C-terminal HaloTag conjugated to JFX650
Description: as §3, §4, §5, §6, §7, §8, §9, §10

iATPSnFR2.A95A.A119L [6] = tested on: T3, iATPSnFR2.A95A.A119L; assay: as above; conditions: n = 3; read-out: Binding curve fits, in µM, for ATP, CTP, GTP (binding specificity)
T3 construct: epsilon subunit residues 1-109, linker 1 VLVG, cpSFGFP, linker 2 ICV, residues 110-129, C-terminal HaloTag conjugated to JFX650
Description: as §3, §4, §5, §6, §7, §8, §9, §10

iATPSnFR2.S29W.A95K [7] = tested on: T1, iATPSnFR2.S29W.A95K; assay: Equilibrium fluorescence titration of 0.2 µM purified sensor HaloTag-JFX650 conjugate with ATP and ADP head-to-head (ex 485 nm, em 535 nm) in Mammalian Cell Imaging Buffer (20 mM HEPES, 119 mM NaCl, 2.5 mM KCl, 2 mM MgCl2, 2 mM CaCl2, pH 7.2).; conditions: n = 3; read-out: Binding curve fits, in µM, for ATP and ADP (affinity)
Description: as §3, §4
(§11) Supplementary Figure 1a. In vitro characterization: ATP & ADP affinity. Three variants of iATPSnFR2.HaloTag-JFX650 titrated with ATP (black) and ADP (grey), head-to-head. iATPSnFR2.S29W.A95K (left); iATPSnFR2.A95K (center); iATPSnFR2.A95A.A119L (right). Binding curve fits, in µM, for ATP and ADP are S29W.A95K: 4 µM, 400 µM. A95K: 16 µM, 780 µM.
(§12) A95A.A119L: 530 µM, 5300 µM. Error bars are s.d. of three technical replicates. […]

iATPSnFR2.A95K [8] = tested on: T2, iATPSnFR2.A95K; assay: as above; conditions: n = 3; read-out: Binding curve fits, in µM, for ATP and ADP (affinity)
Description: as §3, §4, §11, §12

iATPSnFR2.A95A.A119L [9] = tested on: T3, iATPSnFR2.A95A.A119L; assay: as above; conditions: n = 3; read-out: Binding curve fits, in µM, for ATP and ADP (affinity)
Description: as §3, §4, §11, §12

LMTK- cells = assay: green:red ratio imaging of fibroblasts expressing iATPSnFR2-HaloTag variants; assay type: cell-based, mouse; conditions: 10 mM 2dOG replacing 10 mM glucose
Description: (§13) Rho° and the parental LMTK- cells were maintained in T-75 flasks with Dulbecco’s Modified Eagle's Medium (DMEM) + 10% Fetal Bovine Serum (FBS) + 1 mM pyruvate + 5 µM uridine. Two days prior to transfection, they were split into separate rows of a 24-well plate (half Rho°, half LMTK) at 0.6 and 0.1 million cells per well, respectively. Cells were transfected with iATPSnFR2.HaloTag variants by lipofectamine (0.5 µg DNA + 2 µL lipofectamine 2,000 per well) for 4 to 6 h in DMEM lacking FBS or antibiotics. Transfection medium was replaced with fresh DMEM + 10% FBS + penicillin/streptomycin overnight. Cells were labeled with JFX650 HaloTag ligand by adding the fluorophore to 100 nM for an hour. Cells were washed with Mammalian Cell Imaging Buffer and imaged in a Cytation 5 imaging reader (BioTek) over the course of about 2 h. After about 20 min of imaging to establish a baseline fluorescence, the culture plate was removed from the instrument, and buffer was replaced with the query buffer. The equilibration buffer contained 10 mM glucose, and the query buffers contained 10 mM 2dOG.
(§14) Images were background subtracted and aligned for movement artifacts with the Gen5 software package that controls the Cytation 5 instrument. Images were assembled as TIF stacks and imported into ImageJ. […] Those ROIs were used to determine the ratio of green to red fluorescence for each well. […]

Rho° cells = assay: as above; assay type: cell-based, mouse; conditions: 10 mM 2dOG replacing 10 mM glucose
Description: as §13, §14

CC(C)[C@H]1CC[C@@]2(CO2)[C@H]2C(=O)OCC(C(=O)O)=C[C@H]12 [KA, koningic acid]
effect on mitochondrial ATP signal (mito-iATPSnFR2.HaloTag) [1]: rapid drop in the ATP signal
effect on iATPSnFR2 fluorescence during AP stimulation [2]: even greater decrease in fluorescence that did not recover
effect on average green to red fluorescence ratio in boutons [3]: gradually declined over a 5 to 10 min period

Nc1nc2c(ncn2[C@@H]2O[C@H](COP(=O)(O)OP(=O)(O)OP(=O)(O)O)[C@@H](O)[C@H]2O)c(=O)[nH]1 [GTP, guanosine triphosphate]
Kd (iATPSnFR2.S29W.A95K [4]): 430 µM
Kd (iATPSnFR2.A95K [5]): 1500 µM
Kd (iATPSnFR2.A95A.A119L [6]): ~10000 µM

CC[C@H]1/C=C/C=C/C[C@@H](C)[C@H](O)[C@@](C)(O)C(=O)[C@@H](C)[C@H](O)[C@@H](C)C(=O)[C@@H](C)[C@H](O)[C@@H](C)/C=C/C(=O)O[C@@H]2[C@H](C)[C@H](CC1)O[C@]1(CC[C@H](C)[C@H](C[C@@H](C)O)O1)[C@H]2C [oligomycin]
effect on mitochondrial ATP signal (mito-iATPSnFR2.HaloTag) [1]: further collapse of the ATP signal

Nc1ncnc2c1ncn2[C@@H]1O[C@H](COP(=O)(O)OP(=O)(O)O)[C@@H](O)[C@H]1O [ADP, adenosine diphosphate]
Kd (iATPSnFR2.S29W.A95K [7]): 400 µM
Kd (iATPSnFR2.A95K [8]): 780 µM
Kd (iATPSnFR2.A95A.A119L [9]): 5300 µM

O=CC[C@@H](O)[C@H](O)[C@H](O)CO [2dOG, 2-deoxyglucose]
effect on green fluorescence of iATPSnFR2 variants (LMTK- cells): decreased fluorescence only in those expressing the weakest affinity variant
effect on green fluorescence of iATPSnFR2 variants (Rho° cells): green fluorescence rapidly dropped

Nc1ccn([C@@H]2O[C@H](COP(=O)(O)OP(=O)(O)OP(=O)(O)O)[C@@H](O)[C@H]2O)c(=O)n1 [CTP, cytidine triphosphate]
Kd (iATPSnFR2.S29W.A95K [4]): 50 µM
Kd (iATPSnFR2.A95K [5]): 100 µM
Kd (iATPSnFR2.A95A.A119L [6]): ~10000 µM

Nc1ncnc2c1ncn2[C@@H]1O[C@H](COP(=O)(O)OP(=O)(O)OP(=O)(O)O)[C@@H](O)[C@H]1O [ATP, adenosine triphosphate]
Kd (iATPSnFR2.S29W.A95K [7]): 4 µM
Kd (iATPSnFR2.A95K [8]): 16 µM
Kd (iATPSnFR2.A95A.A119L [9]): 530 µM
Kd (iATPSnFR2.S29W.A95K [4]): 20 µM
Kd (iATPSnFR2.A95K [5]): 30 µM
Kd (iATPSnFR2.A95A.A119L [6]): 750 µM
